Experimental findings from ChEMBL document CHEMBL1201862, “PubChem BioAssay data set” (2004) are described below.

Data set [1] addresses Heat shock protein HSP 90-alpha (Homo sapiens, UniProt P07900). In kind it is functional, organism-based.
Another data set addresses T1, Interleukin-8 (Homo sapiens, UniProt P10145).
T1 sequence (P10145 whole entry): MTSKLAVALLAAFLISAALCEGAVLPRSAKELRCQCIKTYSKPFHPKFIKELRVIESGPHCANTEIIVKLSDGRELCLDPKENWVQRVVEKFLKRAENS
Nature of the data set: Dose Response confirmation of uHTS small molecule hits for cystic fibrosis induced NFkb Inhibitors in a PAF-induced IL8 counterscreen. In kind it is functional. To be noted: read-out: IC50_Mean.

A further data set has as its target Major prion protein (Homo sapiens, UniProt P04156). In kind it is functional, cell-based.
Data set [2] is described as follows: cells.
The target in data set [3] is DNA (cytosine-5)-methyltransferase 1 (Homo sapiens, UniProt P26358). The data set is described as follows: DNMT1 methyltransferase inhibitors, confirmation, biochemical, fluorescent molecular beacon (AID 602386). The format is functional.
For data set [4], the target named is T2, Carboxy-terminal domain RNA polymerase II polypeptide A small phosphatase 1 (Homo sapiens, UniProt Q9GZU7).
T2 sequence (Q9GZU7 whole entry): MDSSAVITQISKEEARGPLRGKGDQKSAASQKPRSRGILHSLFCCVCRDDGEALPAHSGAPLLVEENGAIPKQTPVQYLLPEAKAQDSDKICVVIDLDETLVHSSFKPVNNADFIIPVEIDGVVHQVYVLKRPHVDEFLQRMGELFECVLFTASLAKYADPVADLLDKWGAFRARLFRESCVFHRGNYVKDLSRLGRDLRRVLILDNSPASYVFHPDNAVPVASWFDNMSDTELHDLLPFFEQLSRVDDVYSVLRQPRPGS
Nature of the data set: inhibitors of CTDSP1, concentration-response testing, biochemical assay, absorbance-based, actives from ultra-high-throughput screening (AID 540297). In kind it is functional.

The target in data set [5] is FAD-linked sulfhydryl oxidase ALR (Homo sapiens, UniProt P55789). The data set is described as follows: inhibitors of human ALR sulfhydryl oxidase, dose response, biochemical, H2O2 detection, luminescence, cherry-pick (AID 493248).
For a further data set, the target named is Large T antigen (Simian virus 40, UniProt P03070). In kind it is functional, Betapolyomavirus macacae.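 Note: Confirmatory-stage PubChem screen for compounds that inhibit SV40 T antigen.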
The target in a further data set is Genome polyprotein (dengue virus type 2, UniProt P29990). Nature of the data set: Dengue-2 NS5 methyltransferase inhibitors, primary screen, biochemical, confirmation dose response (AID 588689). The format is functional.
In data set [6] the target is T3, COUP transcription factor 2 (Homo sapiens, UniProt P24468).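 Note: HEK293 cells transiently cotransfected with COUP-TFII expression vector and reporter; luciferase reporter luminescence driven by COUP-TFII from the pX2-168 reporter plasmid.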
T3 sequence (P24468 whole entry): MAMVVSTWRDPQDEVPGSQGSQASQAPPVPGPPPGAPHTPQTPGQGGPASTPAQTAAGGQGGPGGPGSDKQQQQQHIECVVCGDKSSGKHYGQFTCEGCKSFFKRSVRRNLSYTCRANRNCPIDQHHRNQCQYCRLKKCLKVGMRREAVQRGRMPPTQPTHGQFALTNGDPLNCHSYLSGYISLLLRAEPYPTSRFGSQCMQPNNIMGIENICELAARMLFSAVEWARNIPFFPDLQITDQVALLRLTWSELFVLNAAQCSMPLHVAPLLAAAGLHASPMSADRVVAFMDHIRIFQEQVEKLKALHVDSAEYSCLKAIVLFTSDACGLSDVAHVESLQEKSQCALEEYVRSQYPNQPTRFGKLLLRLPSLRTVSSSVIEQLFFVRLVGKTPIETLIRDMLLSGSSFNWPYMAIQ
Nature of the data set: Luminescence-based cell-based high throughput dose response assay to identify inhibitors of COUP-TFII (NR2F2). In kind it is functional.

The nature of data set [7]: cells. The format is functional, cell-based. The settings on record: HEK-CNG.
The target of another data set is Galanin receptor type 3 (Homo sapiens, UniProt O60755). Nature of the data set: Fluorescence-based cell-based primary high throughput dose response assay to identify antagonists of the Galanin Receptor 3 (GalR3). In kind it is functional.
In a further data set the target is Cytochrome P450 2C9 (Homo sapiens, UniProt P11712).
Data set [8] can be described thus: T. cruzi growth inhibition in host cells, dose response, cell-based, plate reader, dry powder, set 2 (AID 652275). In kind it is functional.
The test system of the next data set is HeLa. Nature of the data set: HeLa cell cytotoxicity, dose response, cytotoxicity control, ATP luminescence, cherry-pick samples (AID 687004). The format is functional, cell-based. To be noted: Homo sapiens.
Another data set has as its target Protein Wnt-3a (Mus musculus, UniProt P27467). Nature of the data set: SAR analysis of small molecule antagonists of Gli-SUFU in a Wnt3a luminescent reporter assay. The format is functional.
Data set [9] concerns the target T4, Low molecular weight phosphotyrosine protein phosphatase (Homo sapiens, UniProt P24666).
T4 sequence (P24666 whole entry): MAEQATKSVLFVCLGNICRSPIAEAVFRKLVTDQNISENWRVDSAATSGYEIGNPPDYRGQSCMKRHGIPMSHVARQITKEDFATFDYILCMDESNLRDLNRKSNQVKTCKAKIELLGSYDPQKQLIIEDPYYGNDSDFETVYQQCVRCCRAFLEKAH
In kind it is functional. The settings on record: read-out: IC50_Mean.

Data set [10] deals with T4, Low molecular weight phosphotyrosine protein phosphatase. In kind it is functional. The settings on record: read-out: IC50_Mean. The source holds these as a separate data set.
Data set [11] can be described thus: non-specific cell cytotoxicity, dose response, cytotoxicity control for PAX8 inhibitor project, plate reader, dry powder samples (AID 743021). The format is functional, cell-based.
A further data set concerns the target Albumin (Bos taurus, UniProt P02769). The data set is described as follows: Counterscreen for inhibitors of T-cell receptor (TCR)-CD3 interaction: Fluorescence-based biochemical high throughput dose response assay to identify inhibitors of T-cell receptor (TCR)-CD3 interaction using a TAMRA-labeled BSA probe. In kind it is functional. Background: Counterscreens check selectivity or assay interference.

In data set [12] the target is T5, Probable nicotinate-nucleotide adenylyltransferase (Staphylococcus aureus (strain N315), UniProt P65502). The format is functional, Staphylococcus aureus subsp. aureus N315. The settings on record: read-out: IC50_Mean.
The target of data set [13] is T5, Probable nicotinate-nucleotide adenylyltransferase. The format is functional, Staphylococcus aureus subsp. aureus N315.
A short description of data set [14]: HEK293T cytotoxicity, dose response, cytotoxicity control for miR-122 modulator project, cell-based, inhibitor set, cherry-pick, set 2 (AID 720697). In kind it is functional.
Data set [15] can be described thus: A2780 ovarian cancer cell cytotoxicity, dose response, cytotoxicity control, plate reader, dry powder samples (AID 743046). The format is functional, cell-based.
Data set [16] can be described thus: cytotoxicity in OVCAR8 ovarian cancer cells, dose response, PAX8 project, cell-based, plate reader, dry powder samples (AID 743197). The format is functional. The settings on record: OVCAR-8.
The next data set concerns the target Paired box protein Pax-8 (Homo sapiens, UniProt Q06710). Nature of the data set: inhibitors of PAX8-driven TPO luciferase reporter, dose response, RMG-I cells, cherry-pick (AID 687027).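 Note: luciferase reporter driven by Pax8 target thyroperoxidase promoter measured by SteadyGlo luminescence.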 The format is functional, cell-based. In general terms: In a reporter assay the amount or activity of a reporter protein is the signal.
Data set [17] is described as follows: NIH:OVCAR-3 ovarian cancer cell cytotoxicity, dose response, PAX8 inhibitor project, plate reader, dry powder samples (AID 743044). The format is functional, cell-based.
Data set [18] in a line: cytotoxicity toward NIH3T3 fibroblasts, dose response, counter-screen, cell-based, ATP luminescence, mouse fibroblasts (AID 2010).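 Note: cells exposed to compound for about 90 hours before reading.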 The format is functional.
A short description of data set [19]: inhibitors of intracellular T. cruzi replication, confirmation, NIH3T3 host cells, beta-gal luminescence (AID 2044).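 Note: intracellular parasites grown in NIH/3T3 mouse fibroblasts as host cells; luminescent beta-galactosidase reporter signal from transgenic T. cruzi replicating inside host cells; inhibitors lower the luminescence signal.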 In kind it is functional, cell-based.
Data set [20] in a line: Luminescence Cell-Based Dose Retest to Confirm Inhibitors of Cancer Stem Cells. [Related pubchem assays (depositor defined):AID2717, AID2721]. The format is functional. The settings on record: Homo sapiens.
The nature of data set [21]: cytotoxicity in HMLE control line with eGFP shRNA, dose response, counter-screen for HMLE_sh_ECad selective toxicity project, cell-based, HMLE_sh_eGFP, luminescence (AID 463074).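 Note: HMLE human mammary epithelial cells expressing control shRNA against eGFP.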 In kind it is functional, Homo sapiens.
The next data set deals with Mu-type opioid receptor (Homo sapiens, UniProt P35372). In kind it is functional, cell-based.
In data set [22] the target is 5-hydroxytryptamine receptor 2A (Mus musculus, UniProt P35363). In kind it is functional, cell-based.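 Note: CHO-K1 cells with tagged receptor and beta-arrestin; agonist potency measured as compound-induced activation of the receptor.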

The source made the active and inactive calls. Where only a bound is given, the exact number is not on record here.

What is called AC50 is the concentration giving half of the maximal activity seen. In the case of `Cc1ccc(-c2onc3ccc(C(=O)/C=C/N(C)C)cc23)cc1`, the AC50 in data set [1] is 4.11 µM (active). Also, at Interleukin-8, the IC50 was 17.9 µM (inactive).
Take `CCOc1cc(C2Nc3ccccc3C(=O)N2c2ccccc2)c(Br)cc1OCC(=O)O` (configuration not stated): the IC50 at Major prion protein is 10.1 µM (inactive); in the data set “cells [2]”, > 138 µM (inactive).
Consider `O=C1NN(c2ccccc2)C(=O)/C1=C/c1ccc(-c2ccc(C(=O)O)cc2)o1`, for which the IC50 was 10.2 µM (active) in data set [3], 4.57 µM (active) in data set [4], 20.6 µM (active) at Large T antigen and > 100 µM (active) on Genome polyprotein. The AC50 in data set [5] is 0.11 µM (active).
What is called EC50 is the concentration giving half of the maximal effect. As to `NC(=O)c1nnn(Cc2cc(Cl)c(C(=O)c3ccc(Cl)cc3)c(Cl)c2)c1N` [CARBOXYAMIDOTRIAZOLE], the results for the IC50 (in data set [6]; at Galanin receptor type 3) were 9.21 µM (active) and 0.303 µM (active), respectively. Moreover, the EC50 in “cells [7]” was > 29.9 µM (inactive). Also, at Cytochrome P450 2C9, the AC50 entry is given as “inconclusive”.
As to `CC(C)N1CC2(CN(CCc3ccccc3)C2)Oc2c(NC(=O)c3ccncc3)cccc2C1=O`, the AC50 in data set [8] was 0.252 µM (active).
For the compound `C[C@@H]1CCCCO[C@H](CN(C)Cc2ccc3c(c2)OCO3)[C@H](C)CN([C@H](C)CO)C(=O)c2cc(NC(=O)Nc3cccc4ccccc34)ccc2O1`, in the data set on HeLa, the AC50 is 20.1 µM (active).
As to `O=C(Nc1cc(N2CCCCC2)ncn1)c1cccs1`, the IC50 at Protein Wnt-3a was > 21.8 µM (inactive).
For `CCc1nc(N)nc(N)c1-c1ccc(Cl)c(N=[N+]=[N-])c1`, the IC50 is 13.4 µM (active) in data set [9] and 24.1 µM (inactive) in data set [10].
As for `Cc1ccc(NC(=S)N(CCCN2CCOCC2)Cc2ccccn2)cc1`, the AC50 in [11] was 50.9 µM (active).
With `CC(C)N1C[C@H](CN(C)Cc2ccc(Cl)cc2)Oc2c(NC(=O)c3ccncc3)cccc2C1=O`, the AC50 in data set [8] was 0.00393 µM (active).
On to `O=C(Nc1nc2ccsc2c(=O)s1)c1ccc(F)cc1`, for which the IC50 was 5.11 µM (active) in data set [4], 11 µM (active) in [9] and 32 µM (inactive) in data set [10].
With `CNC(=S)NNC(=O)c1cccn(Cc2ccccc2)c1=O`, the IC50 on Albumin was > 94.2 µM (inactive).
Turning to `O=C1NC[C@H](Cc2ccccc2)N(C[C@H]2CCCN2C[C@H](Cc2ccccc2)N2C[C@H](Cc3ccc(O)cc3)N(CC3CCCCCC3)C(=O)C2=O)C1=O`, the IC50 is 37.5 µM (active) in data set [12] and 11.6 µM (active) in data set [13].
Consider `CN(C(=O)C12CC3CC(CC(C3)C1)C2)C1CCS(=O)(=O)C1` (configuration not stated), for which the AC50 in data set [14] was 1.42 µM (active).
In the case of `COc1ccccc1C#Cc1ccc([C@H]2[C@H](C#N)N(C(=O)C3CC3)[C@H]2CO)cc1`, the AC50 was 0.698 µM (active) in data set [15]; 10.7 µM (active) in data set [16]; 6.37 µM (active) at Paired box protein Pax-8; 15.1 µM (active) in [17]; 1.68 µM (active) in data set [11].
With `C=CCn1c(O)c(N=NC(=O)CNC(=O)/C=C/c2ccco2)c2ccccc21`, on Albumin, the IC50 was > 94.1 µM (inactive).
In the case of `CC(C)c1nc(SCC(=O)Nc2nccs2)c2ccccc2n1`, the values for the IC50 at Major prion protein and in the data set “cells [2]” were 2.4 µM (active) and > 138 µM (inactive), respectively.
Regarding `O=C(CN1CCC(c2nc3ccccc3s2)CC1)NCc1cccs1`, the results for the EC50 (in the data set “cells [7]”; in [18]; in data set [19]) were > 29.9 µM (inactive), > 30 µM (not active) and 0.646 µM (active), respectively. Further, the IC50 at Galanin receptor type 3 was 1.39 µM (active).
With `CC(C)(C)Nc1cc(NC(=O)c2ccccc2)ncn1`, the IC50 at Protein Wnt-3a was > 21.8 µM (inactive).
As to `COc1cc(/C=c2\sc3n(c2=O)C(c2ccccc2)C(c2ccccc2)=NN=3)ccc1O` (configuration not stated), the AC50 in [20] was 4.58 µM (active); in data set [21] it was 38.5 µM (active). Also, the values for the IC50 in data set [12] and in data set [13] were 57.3 µM (active) and 19.7 µM (active), respectively.
In the case of `Fc1ccc(F)c(CN2CCN(c3ncccn3)CC2)c1`, the EC50 was 92.4 µM (inactive) on Mu-type opioid receptor and 0.323 µM (active) in [22].
On to `Cc1ccc(-n2ncc3c(SCC(N)=O)ncnc32)cc1C`, for which the AC50 with HeLa was > 52 µM (inactive).
